The values that follow come from patent publication US10189841B2, “Purinones as ubiquitin-specific protease 1 inhibitors” (Forma Therapeutics, Inc., priority 2015, dated 2019).

SMILES strings stand for the structures.

The assay concerns the target USP1 (construct USP1 (I-785, GG670, 671AA)/UAF1 (I-677)-Flag) (Homo sapiens (Human), UniProt O94782, G670A/G671A). Description: Ubiquitin-Rhodamine 110 assay for USP1 activity. Type of assay: biochemical. As to conditions: USP1/UAF1 25 pM, Ub-Rh110 25 nM, 30 min preincubation. In short, it runs like this: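 Ub-Rh110 (25 nM, ≪Km) cleavage read at ex 485/em 535 in Tris pH 8.0, CaCl2, GSH, Prionex, Triton X-100. The screen used 10 µM compound, 100 pM USP1/UAF1 and 45 min at RT.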

Sequence of USP1 (construct USP1 (I-785, GG670, 671AA)/UAF1 (I-677)-Flag) (O94782 whole entry G670A/G671A): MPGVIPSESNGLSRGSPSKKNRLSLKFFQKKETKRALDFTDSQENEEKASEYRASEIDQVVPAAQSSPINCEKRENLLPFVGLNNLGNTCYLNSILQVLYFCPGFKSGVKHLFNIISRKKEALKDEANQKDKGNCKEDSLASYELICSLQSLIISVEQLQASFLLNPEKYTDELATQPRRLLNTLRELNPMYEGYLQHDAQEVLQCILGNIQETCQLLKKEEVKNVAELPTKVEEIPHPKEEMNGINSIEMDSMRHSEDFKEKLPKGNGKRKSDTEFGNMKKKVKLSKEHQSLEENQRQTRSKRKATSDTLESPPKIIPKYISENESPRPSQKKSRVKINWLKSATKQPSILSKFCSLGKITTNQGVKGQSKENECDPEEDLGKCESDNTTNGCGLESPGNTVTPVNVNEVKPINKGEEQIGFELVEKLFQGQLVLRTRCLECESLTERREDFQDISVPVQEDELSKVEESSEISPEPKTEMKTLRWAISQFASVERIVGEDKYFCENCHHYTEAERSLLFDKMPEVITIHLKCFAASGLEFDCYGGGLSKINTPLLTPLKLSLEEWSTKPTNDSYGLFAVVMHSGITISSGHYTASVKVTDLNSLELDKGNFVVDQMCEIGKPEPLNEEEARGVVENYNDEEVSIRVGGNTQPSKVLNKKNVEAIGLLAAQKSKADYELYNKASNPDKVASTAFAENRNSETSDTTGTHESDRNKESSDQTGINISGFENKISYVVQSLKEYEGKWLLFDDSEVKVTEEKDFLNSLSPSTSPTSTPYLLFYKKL
Sequence of USP1 (construct USP1 (I-785, GG670, 671AA)/UAF1 (I-677)-Flag) (Q8TAF3 whole entry partner): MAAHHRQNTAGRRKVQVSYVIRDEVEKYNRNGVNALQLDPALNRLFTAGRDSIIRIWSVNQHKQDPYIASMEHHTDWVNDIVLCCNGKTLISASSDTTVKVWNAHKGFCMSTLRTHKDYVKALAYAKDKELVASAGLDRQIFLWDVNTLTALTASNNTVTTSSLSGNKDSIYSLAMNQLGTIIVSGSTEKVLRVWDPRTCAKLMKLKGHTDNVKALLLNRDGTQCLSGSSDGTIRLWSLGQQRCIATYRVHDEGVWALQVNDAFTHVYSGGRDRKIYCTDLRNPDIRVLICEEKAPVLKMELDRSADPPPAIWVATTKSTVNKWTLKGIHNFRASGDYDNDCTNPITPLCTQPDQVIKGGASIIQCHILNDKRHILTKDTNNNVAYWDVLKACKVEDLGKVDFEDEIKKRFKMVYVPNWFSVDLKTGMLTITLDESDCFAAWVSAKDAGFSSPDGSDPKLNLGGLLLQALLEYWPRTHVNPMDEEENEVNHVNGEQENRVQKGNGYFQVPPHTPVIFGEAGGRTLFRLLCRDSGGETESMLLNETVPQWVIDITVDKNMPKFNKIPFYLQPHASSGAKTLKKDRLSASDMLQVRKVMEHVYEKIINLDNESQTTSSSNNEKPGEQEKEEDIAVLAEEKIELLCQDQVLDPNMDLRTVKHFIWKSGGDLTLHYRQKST

Consider `CC(C)c1c(F)cccc1-c1ncc2[nH]c(=O)n(Cc3ccc(-c4nc(C(F)(F)F)cn4C4COC4)cc3)c2n1` [Compound I-201, 2-(3-fluoro-2-isopropylphenyl)-9-(4-(1-(oxetan-3-yl)-4-(trifluoromethyl)-1H-imidazol-2-yl)benzyl)-7,9-dihydro-8H-purin-8-one], for which the IC50 was less than 50 nM.
Then `CC(C)c1c(F)cccc1-c1ncc2c(n1)n(Cc1ccc(-c3nc(C(F)(F)F)cn3C)cc1)c(=O)n2C` [Compound I-65, 2-(3-fluoro-2-isopropylphenyl)-7-methyl-9-(4-(1-methyl-4-(trifluoromethyl)-1H-imidazol-2-yl)benzyl)-7,9-dihydro-8H-purin-8-one], with less than 50 nM; and `Cc1cc(C(=O)N(C)C)nn1-c1ccc(Cn2c(=O)[nH]c3cnc(-c4ccccc4C4CC4)nc32)cc1` [Compound I-504, 1-(4-((2-(2-Cyclopropylphenyl)-8-oxo-7,8-dihydro-9H-purin-9-yl)methyl)phenyl)-N,N,5-trimethyl-1H-pyrazole-3-carboxamide], with 50 to 200 nM.
Then `CC(C)c1ccccc1-c1ncc2c(n1)n(Cc1ccc(-c3ccnn3C(C)C)cc1)c(=O)n2C` [Compound I-284, 9-(4-(1-isopropyl-1H-pyrazol-5-yl)benzyl)-2-(2-isopropylphenyl)-7-methyl-7,9-dihydro-8H-purin-8-one], with 200 to 2000 nM; and `Cc1cc(C)n(-c2ccc(Cn3c(=O)[nH]c4cnc(-c5ccccc5C(C)C)nc43)cc2)n1` [Compound I-1, 9-(4-(3,5-Dimethyl-1H-pyrazol-1-yl)benzyl)-2-(2-isopropylphenyl)-7,9-dihydro-8H-purin-8-one], with less than 50 nM; and `Cn1ccc2cccc(-c3ncc4[nH]c(=O)n(Cc5ccc(-n6cccn6)cc5)c4n3)c21` [Compound I-29, 9-(4-(1H-pyrazol-1-yl)benzyl)-2-(1-methyl-1H-indol-7-yl)-7,9-dihydro-8H-purin-8-one], with 200 to 2000 nM.
The same measure for `CC(=O)c1ccccc1-c1ncc2[nH]c(=O)n(Cc3ccc(-c4nc(C(F)(F)F)cn4C)cc3)c2n1` [Compound I-38, 2-(2-acetylphenyl)-9-(4-(1-methyl-4-(trifluoromethyl)-1H-imidazol-2-yl)benzyl)-7,9-dihydro-8H-purin-8-one]: less than 50 nM.
`COc1c(F)cccc1-c1ncc2[nH]c(=O)n(Cc3ccc(-n4nccn4)cc3)c2n1` [Compound I-16, 9-(4-(2H-1,2,3-triazol-2-yl)benzyl)-2-(3-fluoro-2-methoxyphenyl)-7,9-dihydro-8H-purin-8-one] returned an IC50 greater than 2000 nM.
In turn, `COC(=O)N1CCC(c2ccn(-c3ccc(Cn4c(=O)[nH]c5cnc(-c6ccccc6C(C)C)nc54)cc3)n2)CC1` [Compound I-543, Methyl 4-(1-(4-((2-(2-isopropylphenyl)-8-oxo-7,8-dihydro-9H-purin-9-yl)methyl)phenyl)-1H-pyrazol-3-yl)piperidine-1-carboxylate] registered an IC50 of less than 50 nM.
The same measure for `CC(C)c1ccncc1-c1ncc2c(n1)n(Cc1ccc(-n3cccn3)cc1)c(=O)n2C` [Compound I-17, 9-(4-(1H-pyrazol-1-yl)benzyl)-2-(4-isopropylpyridin-3-yl)-7-methyl-7,9-dihydro-8H-purin-8-one]: greater than 2000 nM; for `CC(C)c1ncccc1-c1ncc2[nH]c(=O)n([C@H](C)c3ccc(-n4cccn4)cc3)c2n1` [Compound I-14, (R)-9-(1-(4-(1H-pyrazol-1-yl)phenyl)ethyl)-2-(2-isopropylpyridin-3-yl)-7,9-dihydro-8H-purin-8-one]: 50 to 200 nM; for `CC(C)c1ccccc1-c1ncc2[nH]c(=O)n(Cc3ccc(-c4ccnn4C)cc3)c2n1` [Compound I-256, 2-(2-isopropylphenyl)-9-(4-(1-methyl-1H-pyrazol-5-yl)benzyl)-7,9-dihydro-8H-purin-8-one]: less than 50 nM.
Then `CC(C)c1ccccc1-c1ncc2[nH]c(=O)n([C@H](C)c3ccccc3)c2n1` [Compound I-155, (R)-2-(2-isopropylphenyl)-9-(1-phenylethyl)-7,9-dihydro-8H-purin-8-one], with 50 to 200 nM.
The same measure for `CC(C)c1ccccc1-c1ncc2[nH]c(=O)n(CCC3CCN(c4cccnc4)CC3)c2n1` [Compound I-161, 2-(2-isopropylphenyl)-9-(2-(1-(pyridin-3-yl)piperidin-4-yl)ethyl)-7,9-dihydro-8H-purin-8-one]: 200 to 2000 nM; for `CC(C)c1ccccc1-c1ncc2c(n1)n(CC1CCN(S(=O)(=O)c3nccn3C)CC1)c(=O)n2C` [Compound I-451, 2-(2-isopropylphenyl)-7-methyl-9-((1-((1-methyl-1H-imidazol-2-yl)sulfonyl)piperidin-4-yl)methyl)-7,9-dihydro-8H-purin-8-one]: 200 to 2000 nM.
Turning to `CC(C)c1ccccc1-c1ncc2[nH]c(=O)n(Cc3ccc(-c4ccnn4C(C)C)cc3)c2n1` [Compound I-299, 9-(4-(1-isopropyl-1H-pyrazol-5-yl)benzyl)-2-(2-isopropylphenyl)-7,9-dihydro-8H-purin-8-one], the IC50 is 50 to 200 nM.
For the molecule `CC(C)c1ccccc1-c1ncc2[nH]c(=O)n(Cc3ccc(-c4cn(CCO)nn4)cc3)c2n1` [Compound I-522, 9-(4-(1-(2-Hydroxyethyl)-1H-1,2,3-triazol-4-yl)benzyl)-2-(2-isopropylphenyl)-7,9-dihydro-8H-purin-8-one], the IC50 is 200 to 2000 nM.
Then `CC(C)c1ccccc1-c1ncc2[nH]c(=O)n(Cc3ccc(-c4nc(C(F)(F)F)cn4C4CNC4)cc3)c2n1` [Compound I-430, 9-(4-(1-(azetidin-3-yl)-4-(trifluoromethyl)-1H-imidazol-2-yl)benzyl)-2-(2-isopropylphenyl)-7,9-dihydro-8H-purin-8-one], with less than 50 nM; and `Cc1cc(C(F)(F)F)nn1-c1ccc(Cn2c(=O)[nH]c3cnc(-c4ccccc4C(C)C)nc32)cc1` [Compound I-194, 2-(2-isopropylphenyl)-9-(4-(5-methyl-3-(trifluoromethyl)-1H-pyrazol-1-yl)benzyl)-7,9-dihydro-8H-purin-8-one], with less than 50 nM.
`Cn1cc(C(F)(F)F)nc1-c1ccc(Cn2c(=O)[nH]c3cnc(-c4cccnc4N[C@H]4CCOC4)nc32)cc1` [Compound I-322, (S)-9-(4-(1-methyl-4-(trifluoromethyl)-1H-imidazol-2-yl)benzyl)-2-(2-((tetrahydrofuran-3-yl)amino)pyridin-3-yl)-7,9-dihydro-8H-purin-8-one] displayed an IC50 of 50 to 200 nM.
The molecule `CC(C)c1ccccc1-c1ncc2[nH]c(=O)n(Cc3ccc(-n4cccn4)cc3F)c2n1` [Compound I-167, 9-(2-fluoro-4-(1H-pyrazol-1-yl)benzyl)-2-(2-isopropylphenyl)-7,9-dihydro-8H-purin-8-one] registered an IC50 of 200 to 2000 nM.
`CC(C)c1ccccc1-c1ncc2[nH]c(=O)n(Cc3ccc(-c4ncn(C)c4CO)cc3)c2n1` [Compound I-297, 9-(4-(5-(hydroxymethyl)-1-methyl-1H-imidazol-4-yl)benzyl)-2-(2-isopropylphenyl)-7,9-dihydro-8H-purin-8-one] yielded a concentration for half-maximal inhibition (IC50) of 200 to 2000 nM.
Then `CC(C)c1ccccc1-c1ncc2[nH]c(=O)n(Cc3ccc(C(=O)NCCN4CCCCC4)cc3)c2n1` [Compound I-409, 4-((2-(2-isopropylphenyl)-8-oxo-7,8-dihydro-9H-purin-9-yl)methyl)-N-(2-(piperidin-1-yl)ethyl)benzamide], with greater than 2000 nM; and `CC(C)c1ccccc1-c1ncc2c(n1)n(Cc1ccc(-c3nc(C(F)(F)F)cn3CCO)cc1)c(=O)n2C` [Compound I-106, 9-(4-(1-(2-Hydroxyethyl)-4-(trifluoromethyl)-1H-imidazol-2-yl)benzyl)-2-(2-isopropylphenyl)-7-methyl-7,9-dihydro-8H-purin-8-one], with less than 50 nM; and `CC(C)c1ccccc1-c1ncc2c(n1)n(Cc1cccc(OCCN(C)C)c1)c(=O)n2C` [Compound I-244, 9-(3-(2-(dimethylamino)ethoxy)benzyl)-2-(2-isopropylphenyl)-7-methyl-7,9-dihydro-8H-purin-8-one], with greater than 2000 nM.
Then `Cn1cc(C(F)(F)F)nc1-c1ccc(Cn2c(=O)[nH]c3cnc(-c4ccccc4[S+](C)[O-])nc32)cc1` (stereo not shown) [Compound I-86, 9-(4-(1-methyl-4-(trifluoromethyl)-1H-imidazol-2-yl)benzyl)-2-(2-(methylsulfinyl)phenyl)-7,9-dihydro-8H-purin-8-one], with 200 to 2000 nM.
Then `Cc1nc(-c2ccc(Cn3c(=O)n(C)c4cnc(-c5ccccc5C(C)C)nc43)cc2)nn1C` [Compound I-279, 9-(4-(1,5-dimethyl-1H-1,2,4-triazol-3-yl)benzyl)-2-(2-isopropylphenyl)-7-methyl-7,9-dihydro-8H-purin-8-one], with less than 50 nM; and `CCN(C)c1ncccc1-c1ncc2[nH]c(=O)n(Cc3ccc(-c4nc(C(F)(F)F)cn4C)cc3)c2n1` [Compound I-331, 2-(2-(ethyl(methyl)amino)pyridin-3-yl)-9-(4-(1-methyl-4-(trifluoromethyl)-1H-imidazol-2-yl)benzyl)-7,9-dihydro-8H-purin-8-one], with less than 50 nM; and `Cn1cc(C(F)(F)F)nc1-c1ccc(Cn2c(=O)[nH]c3cnc(-c4cccnc4N4CCC(C(F)(F)F)CC4)nc32)cc1` [Compound I-329, 9-(4-(1-methyl-4-(trifluoromethyl)-1H-imidazol-2-yl)benzyl)-2-(2-(4-(trifluoromethyl)piperidin-1-yl)pyridin-3-yl)-7,9-dihydro-8H-purin-8-one], with less than 50 nM.
In turn, `O=c1[nH]c2cnc(-c3cccnc3OCC(F)(F)F)nc2n1Cc1ccc(-n2cccn2)cc1` [Compound I-18, 9-(4-(1H-pyrazol-1-yl)benzyl)-2-(2-(2,2,2-trifluoroethoxy)pyridin-3-yl)-7,9-dihydro-8H-purin-8-one] had an IC50 of 200 to 2000 nM.
Then `CC(C)c1ccccc1-c1ncc2[nH]c(=O)n(Cc3ccc(C(=O)NC4CC4)cc3)c2n1` [Compound I-353, N-cyclopropyl-4-((2-(2-isopropylphenyl)-8-oxo-7,8-dihydro-9H-purin-9-yl)methyl)benzamide], with 50 to 200 nM.
